Strand notation (5' to 3'): a small letter for the sugar, then the base; units joined by * are phosphorothioate-linked, units joined directly phosphodiester-linked; [ ] holds rarer units or linkages, { } end groups; capitals alone tell only the bases. e = 2'-O-(2-methoxyethyl) (MOE); [5mC] = 5-methylcytosine; d = 2'-deoxy (DNA)
Test system: human PKK mRNA
Assay: Antisense inhibition of human PKK mRNA in HepaRG cells, 5,000 nM (Example 2)
Type: cell-based
Outline: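 Percent inhibition of PKK mRNA is reported relative to untreated cells, after adjustment for total RNA by RIBOGREEN. Gapmers of 16–20 nucleosides with 2′-MOE wings were delivered at 5,000 nM by electroporation into HepaRG cells and left for roughly 24 hours before RNA isolation.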

[1] = HepaRG cells, 5,000 nM antisense oligonucleotide, 5-10-5 gapmers, Table 17
[2] = HepaRG cells, electroporation, 5,000 nM antisense oligonucleotide, approx. 24 hours, primer probe set RTS3454, relative to untreated control cells, Table 12
[3] = Table 8, HepaRG cells, electroporation with 5,000 nM antisense oligonucleotide, approx. 24 hours, PKK mRNA by RT-PCR (RTS3454), relative to untreated control cells
[4] = Table 13, human PKK mRNA in HepaRG cells, 5-10-5 gapmers
[5] = Table 7, HepaRG cells, electroporation with 5,000 nM antisense oligonucleotide, approx. 24 hours, PKK mRNA by RT-PCR (RTS3454), relative to untreated control cells
[6] = Table 9 experiment, HepaRG cells, 20,000 cells per well, electroporation with 5,000 nM antisense oligonucleotide, approx. 24 hours, PKK mRNA by RT-PCR (RTS3454), relative to untreated control cells
[7] = Table 10 experiment, HepaRG cells, 20,000 cells per well, electroporation with 5,000 nM antisense oligonucleotide, approx. 24 hours, PKK mRNA by RT-PCR (RTS3454), relative to untreated control cells
[8] = HepaRG cells, electroporation, 5,000 nM antisense oligonucleotide, approx. 24 hours, primer probe set RTS3454, relative to untreated control cells, Table 11
[9] = human PKK mRNA, HepaRG cells, 5-10-5 motif oligonucleotides targeting SEQ ID NO: 1 and 10
[10] = HepaRG cells, electroporation with 5,000 nM antisense oligonucleotide, approximately 24 hours, PKK mRNA by RT-PCR (RTS3454), relative to untreated control cells, Table 5 experiment
[11] = human PKK mRNA, HepaRG cells, 5,000 nM antisense oligonucleotide, Table 18

In the case of “547024 (eG*eG*eA*eT*eT*dG*dG*dT*dG*dG*d[5mC]*dG*dG*dG*dA*eT*e[5mC]*eG*eG*eT; antisense) [compound 547024]”, the “% inhibition” value [1] is reported as 56%.
In the case of “547357 (e[5mC]*eT*eT*eT*eA*dA*dT*dA*dG*dG*d[5mC]*dA*dA*dT*dT*eG*eT*eT*e[5mC]*e[5mC]; antisense) [compound 547357]”, the “% inhibition” value (HepaRG cells, electroporation with 5,000 nM antisense oligonucleotide, approximately 24 hours, PKK mRNA by RT-PCR (RTS3454), relative to untreated control cells, Table 6 experiment) is reported as 78%.
For “547538 (antisense e[5mC]*e[5mC]*eA*eG*e[5mC]*dA*dG*dA*dA*dA*dT*d[5mC]*d[5mC]*dT*dG*eT*eG*e[5mC]*eA*eT) [compound 547538]”, the “% inhibition” value [2] was 77%.
In the case of “547537 (antisense e[5mC]*e[5mC]*eT*eG*eT*dG*d[5mC]*dA*dT*dA*dG*dA*d[5mC]*d[5mC]*d[5mC]*e[5mC]*eA*eA*e[5mC]*eA) [compound 547537]”, the “% inhibition” value [2] is reported as 65%.
With “547736 (eT*eG*eG*eT*eA*dG*dG*dA*dT*dT*dG*dG*dT*dG*dG*eT*eG*eG*eG*eA; antisense) [compound 547736]” the “% inhibition” value [1] was 54%.
In the case of “546492 (e[5mC]*eT*e[5mC]*eG*e[5mC]*d[5mC]*dT*dT*dT*dG*dT*dG*dA*d[5mC]*dT*e[5mC]*eG*eA*eT*eT; antisense) [compound 546492]”, the “% inhibition” value [2] is reported as 61%.
“546256 (eT*e[5mC]*eA*eT*e[5mC]*dT*dT*dT*dG*dT*dG*d[5mC]*dA*dA*dG*eT*e[5mC]*eT*e[5mC]*eT; antisense) [compound 546256]” was tested, and the “% inhibition” value [3] was 83%.
For “547733 (eT*eA*eG*eG*eA*dT*dT*dG*dG*dT*dG*dG*dT*dG*dG*eG*eA*eT*eT*eG; antisense) [compound 547733]”, the “% inhibition” value [1] was 0%.
For “546845 (eT*eG*eT*e[5mC]*e[5mC]*dT*dA*dT*dA*dT*d[5mC]*dA*d[5mC]*dT*dG*eT*e[5mC]*e[5mC]*eT*eA; antisense) [compound 546845]”, the “% inhibition” value [4] was 75%.
For “546977 (eG*eT*e[5mC]*e[5mC]*e[5mC]*dG*dA*dA*dG*dA*dG*dT*d[5mC]*dA*dA*eG*eT*e[5mC]*e[5mC]*eA; antisense) [compound 546977]”, the “% inhibition” value (HepaRG cells, 5,000 nM antisense oligonucleotide, 5-10-5 gapmers, Table 16) was 76%.
In the case of “547375 (eG*eT*eG*eA*eT*dA*dG*dG*dT*dG*d[5mC]*dA*dG*dA*dT*eG*eG*eT*e[5mC]*e[5mC]; antisense) [compound 547375]”, the “% inhibition” value [5] is reported as 72%.
In the case of “546860 (e[5mC]*eT*eA*eG*eT*dT*dT*d[5mC]*d[5mC]*dT*dA*dT*dA*dA*d[5mC]*eT*eA*eT*eA*eA; antisense) [compound 546860]”, the “% inhibition” value (human PKK mRNA in HepaRG cells, 5-10-5 gapmers, Table 14) is reported as 36%.
With “546345 (antisense e[5mC]*eA*eA*eG*e[5mC]*dA*dT*d[5mC]*dT*dT*dT*dT*d[5mC]*d[5mC]*d[5mC]*e[5mC]*e[5mC]*eT*eT*e[5mC]) [compound 546345]” the “% inhibition” value [6] was 86% and the “% inhibition” value [7] was 80%.
With “547496 (antisense eA*eT*eG*e[5mC]*eT*dG*dG*dT*dG*dA*d[5mC]*dT*dG*d[5mC]*dA*eT*e[5mC]*eT*eG*eA) [compound 547496]” the “% inhibition” value [8] was 80%.
For “546817 (eG*e[5mC]*eT*e[5mC]*eT*dG*dA*dG*d[5mC]*d[5mC]*dT*dT*d[5mC]*d[5mC]*dG*e[5mC]*e[5mC]*eT*e[5mC]*eT; antisense) [compound 546817]”, the “% inhibition” value [4] was 77%.
In the case of “547534 (antisense eA*eT*e[5mC]*eT*eG*dA*d[5mC]*dT*dA*dG*dT*dG*dA*dA*dT*eG*eG*e[5mC]*eT*eT) [compound 547534]”, the “% inhibition” value [2] is reported as 72%.
With “548721 (DNA e[5mC]*eT*eG*dT*dA*d[5mC]*dT*dA*dG*dT*dT*dT*d[5mC]*e[5mC]*eT*eA*eT; antisense) [compound 548721]” the “% inhibition” value (HepaRG cells, 5,000 nM antisense oligonucleotide, human PKK mRNA, Table 18) was 27%.
For “547631 (antisense e[5mC]*eA*e[5mC]*eT*eG*dT*d[5mC]*d[5mC]*dT*dA*dT*dA*dT*d[5mC]*dA*e[5mC]*eT*e[5mC]*eT*eA) [compound 547631]”, the “% inhibition” value [9] was 85%.
In the case of “547386 (eA*e[5mC]*eT*eT*eG*dG*dT*dG*dT*dG*d[5mC]*d[5mC]*dA*d[5mC]*dT*eT*eT*e[5mC]*eA*eG; antisense) [compound 547386]”, the “% inhibition” value [5] is reported as 78%.
With “547284 (antisense eA*eA*eA*eT*eG*dA*dA*dA*dT*dA*dA*dG*dT*dT*dG*e[5mC]*eT*eT*eG*e[5mC]) [compound 547284]” the “% inhibition” value [10] was 26%.
In the case of “546501 (eT*eT*eT*e[5mC]*e[5mC]*dA*dT*dG*d[5mC]*dA*dT*dA*d[5mC]*dT*d[5mC]*eG*e[5mC]*e[5mC]*eT*eT; antisense) [compound 546501]”, the “% inhibition” value [2] is reported as 53%.
With “547049 (e[5mC]*eA*e[5mC]*eT*eT*d[5mC]*d[5mC]*d[5mC]*dA*dG*d[5mC]*dA*dA*d[5mC]*d[5mC]*e[5mC]*eT*e[5mC]*eA*e[5mC]; antisense) [compound 547049]” the “% inhibition” value [1] was 20%.
For “546329 (antisense e[5mC]*e[5mC]*eT*eT*e[5mC]*dG*dA*dG*dA*dA*dG*d[5mC]*d[5mC]*d[5mC]*d[5mC]*eA*eT*e[5mC]*e[5mC]*eG) [compound 546329]”, the “% inhibition” value [6] was 18% and the “% inhibition” value [7] was 8%.
For “547491 (antisense e[5mC]*eA*eT*eG*eT*dA*d[5mC]*dT*d[5mC]*dA*dG*d[5mC]*dG*dA*d[5mC]*eT*eT*eT*eG*eG) [compound 547491]”, the “% inhibition” value [8] was 47%.
For “547675 (antisense eT*eG*eT*e[5mC]*e[5mC]*dT*dA*dT*dA*dA*d[5mC]*dT*dA*dT*dA*eA*e[5mC]*eA*eA*eT) [compound 547675]”, the “% inhibition” value [9] was 10%.
In the case of “547309 (antisense e[5mC]*eT*eT*eT*e[5mC]*dA*dA*dG*dA*dA*dG*d[5mC]*dA*dA*d[5mC]*e[5mC]*eA*eA*eA*e[5mC]) [compound 547309]”, the “% inhibition” value [10] is reported as 71%.
For “548760 (antisense eT*eA*eA*e[5mC]*dA*dG*dT*dA*dT*d[5mC]*dA*d[5mC]*dT*eG*eT*eA*e[5mC]) [compound 548760]”, the “% inhibition” value [11] was 53%.
For “547290 (antisense eA*eG*e[5mC]*eT*eA*d[5mC]*dA*dT*d[5mC]*d[5mC]*d[5mC]*d[5mC]*dA*d[5mC]*d[5mC]*eT*e[5mC]*eT*eG*eA) [compound 547290]”, the “% inhibition” value [10] was 76%.
“546271 (eA*eG*eA*eA*eA*d[5mC]*dA*d[5mC]*dT*dT*dA*d[5mC]*dA*d[5mC]*dT*eT*e[5mC]*eT*e[5mC]*eT; antisense) [compound 546271]” was tested, and the “% inhibition” value [3] was 60%.
In the case of “547555 (eT*eG*eT*e[5mC]*eT*d[5mC]*d[5mC]*dT*dT*d[5mC]*d[5mC]*dA*d[5mC]*dT*dT*eG*e[5mC]*eT*e[5mC]*e[5mC]; antisense) [compound 547555]”, the “% inhibition” value [2] is reported as 58%.
“547503 (antisense eA*e[5mC]*eT*e[5mC]*eA*dG*dG*dT*dT*dG*dT*dA*dA*dA*dA*eA*eT*eT*eG*e[5mC]) [compound 547503]” was tested, and the “% inhibition” value [8] was 66%.
For “546502 (eG*eA*eT*eT*eT*dT*d[5mC]*d[5mC]*dA*dT*dG*d[5mC]*dA*dT*dA*e[5mC]*eT*e[5mC]*eG*e[5mC]; antisense) [compound 546502]”, the “% inhibition” value [2] was 37%.
For “547556 (eG*e[5mC]*e[5mC]*eA*eT*dT*dT*dT*dA*dT*d[5mC]*d[5mC]*d[5mC]*dT*dG*eA*eG*eA*eT*eT; antisense) [compound 547556]”, the “% inhibition” value [2] was 55%.
With “548733 (DNA e[5mC]*eA*e[5mC]*eT*dG*dT*dA*d[5mC]*dT*dA*dG*dT*dT*dT*e[5mC]*e[5mC]*eT; antisense) [compound 548733]” the “% inhibition” value [11] was 84%.
For “546359 (antisense eG*e[5mC]*eA*eT*e[5mC]*dT*dG*dA*dG*d[5mC]*dT*dT*dT*dT*d[5mC]*e[5mC]*eA*eT*e[5mC]*eA) [compound 546359]”, the “% inhibition” value [8] was 79%.
“547671 (e[5mC]*eT*eA*e[5mC]*eA*dA*d[5mC]*dT*dA*dT*dA*dA*d[5mC]*dA*dG*eT*eA*eT*e[5mC]*eA; antisense) [compound 547671]” was tested, and the “% inhibition” value [9] was 0%.
In the case of “547752 (eG*eT*eG*eG*eT*dT*dG*dG*dT*dG*dG*d[5mC]*dG*dG*dG*eA*eT*e[5mC]*eG*eG; antisense) [compound 547752]”, the “% inhibition” value [1] is reported as 41%.
For “548772 (antisense eT*eA*eT*eA*dA*d[5mC]*dA*dG*dT*dA*dT*d[5mC]*dA*e[5mC]*eT*eG*eT) [compound 548772]”, the “% inhibition” value [11] was 0%.
In the case of “546421 (eT*e[5mC]*eA*eA*eG*d[5mC]*dT*dG*dT*dT*d[5mC]*dT*dA*dA*dT*eG*eT*eG*eG*e[5mC]; antisense) [compound 546421]”, the “% inhibition” value [2] is reported as 71%.
“546148 (e[5mC]*eG*eT*eT*eT*dT*d[5mC]*dA*dT*dA*dG*dA*dG*dT*dT*eG*eA*eG*eT*e[5mC]; antisense) [compound 546148]” was tested, and the “% inhibition” value [10] was 68%.
In the case of “547669 (eA*e[5mC]*eA*eA*e[5mC]*dT*dA*dT*dA*dA*d[5mC]*dA*dG*dT*dA*eT*e[5mC]*eA*e[5mC]*eT; antisense) [compound 547669]”, the “% inhibition” value [9] is reported as 0%.

— patent US11840686B2, “Modulation of prekallikrein (PKK) expression” (Ionis Pharmaceuticals, Inc., priority 2013, dated 2023)
